Results as given in patent publication US8084502B2, “Use of agmatine for protection of retinal ganglion cells” (priority 2007, dated 2011).

What was measured:
Assay type in all cases: cell-based, rat
RGC-5 [1] = experiment: LDH assay, hypoxia-induced cell death; conditions: for LDH release: relative to maximum LDH release = 100; for concentration at which cell death was reduced significantly (LDH assay): preliminary studies
Procedure: The RGC-5 cell line, which is a RGC line developed from post-natal Sprague-Dawley rats, was grown in modified Dulbecco's Modified Eagle's Medium (DMEM; Gibco) supplemented with 10% of heat inactivated fetal bovine serum (Gibco) and 100 U/mL of penicillin and 100 μg/mL of streptomycin (Gibco). The cells were passaged every 2 to 3 days, and the cultures incubated at 37° C. in 5% of CO2 and air. […] For all experiments, cells were used at an 80% confluence.
Cultures were transferred into a closed hypoxic chamber (Form a Scientific Co.) in which oxygen level (5% of O2, 5% of CO2, 90% of N2) and temperature (37° C.) were controlled. After washing twice with deoxygenated serum-free DMEM, cells were maintained in the hypoxic chamber. Control cells were not exposed to hypoxia. Agmatine or BDNF were added to the culture medium at the start of injury as indicated.
Cell viability was quantified by measurement of LDH released by injured cells after hypoxic or normoxic culture for 12, 24, and 48 hours. LDH release is expressed as a value relative to the value of 100, which represents the maximum LDH release that occurred after freezing of each culture at −70° C. overnight and rapid thawing, which induces nearly complete cell damage. All experiments were performed in at least quadruplicate and repeated at least eight times using cell cultures derived from different platings. The preliminary studies with the LDH assay tested agmatine concentrations from 10 μM to 1 mM and BDNF concentrations from 5 ng/mL to 100 ng/mL.

RGC-5 [2] = experiment: Annexin-V assay (flow cytometry), hypoxia-induced apoptosis; conditions: agmatine 100 μM or BDNF 10 ng/ml
Procedure: The RGC-5 cell line, which is a RGC line developed from post-natal Sprague-Dawley rats, was grown in modified Dulbecco's Modified Eagle's Medium (DMEM; Gibco) supplemented with 10% of heat inactivated fetal bovine serum (Gibco) and 100 U/mL of penicillin and 100 μg/mL of streptomycin (Gibco). The cells were passaged every 2 to 3 days, and the cultures incubated at 37° C. in 5% of CO2 and air. […] For all experiments, cells were used at an 80% confluence. Cultures were transferred into a closed hypoxic chamber (Form a Scientific Co.) in which oxygen level (5% of O2, 5% of CO2, 90% of N2) and temperature (37° C.) were controlled. After washing twice with deoxygenated serum-free DMEM, cells were maintained in the hypoxic chamber. Control cells were not exposed to hypoxia. Agmatine or BDNF were added to the culture medium at the start of injury as indicated. The percentage of cells actively undergoing apoptosis was determined by flow cytometry using the Annexin V-FITC Apoptosis Detection Kit (BD Biosciences, Cat no. 556547) according to the manufacturer's instructions. Briefly, cells were harvested and resuspended in binding buffer (10^6 cells/mL). 10^5 cells were mixed with 5 μL of annexin V-FITC and 5 μL of PI. After incubating at room temperature for 15 minutes in the dark, analysis was performed by flow cytometry.

JNK = experiment: Western blot, phospho-JNK in hypoxic RGC-5; conditions: agmatine 100 μM, BDNF 10 ng/mL
Procedure: (§1) The RGC-5 cell line, which is a RGC line developed from post-natal Sprague-Dawley rats, was grown in modified Dulbecco's Modified Eagle's Medium (DMEM; Gibco) supplemented with 10% of heat inactivated fetal bovine serum (Gibco) and 100 U/mL of penicillin and 100 μg/mL of streptomycin (Gibco). The cells were passaged every 2 to 3 days, and the cultures incubated at 37° C. in 5% of CO2 and air. […] For all experiments, cells were used at an 80% confluence. Cultures were transferred into a closed hypoxic chamber (Form a Scientific Co.) in which oxygen level (5% of O2, 5% of CO2, 90% of N2) and temperature (37° C.) were controlled. […] The protein concentrations in the resultant supernatants were measured with the Bradford reagent, and equal amounts of protein (40 μg) were boiled in Laemmli sample buffer, followed by being resolved by 10 or 15% SDS-PAGE. The proteins were transferred to polyvinylidene fluoride membranes (Immobilon; Millipore, Billerica, Mass.) and then probed overnight with antibodies against JNK, ERK p44/42, p38, NF-κB p65, phospho-JNK, phospho-ERK p44/42, phospho-p38, phospho-NF-κB, (3-actin and histone 3 as indicated (diluted 1:1000). The immunoreactive bands were detected with horseradish peroxidase-conjugated secondary antibodies and visualized by enhanced chemiluminescence.

ERK = experiment: Western blot, phospho-ERK in hypoxic RGC-5; conditions: agmatine 100 μM, BDNF 10 ng/mL
Procedure: as §1

[3] = tested on: Total MAPKs (JNK, ERK, and p38); experiment: Western blot, total MAPKs in hypoxic RGC-5
Procedure: as §1

RGC-5 [4] = experiment: Hoechst 33342 and PI staining after TNF-α
Procedure: The RGC-5 cell line, which is an RGC line developed from post-natal Sprague-Dawley rats, was grown in modified DMEM (Gibco) supplemented with 10% of heat inactivated fetal bovine serum (Gibco) and 100 U/mL of penicillin and 100 μg/mL of streptomycin (Gibco). The cells were passaged every 2 to 3 days and incubated at 37° C. in 5% of CO2 and air. At cultivation, the cells had the same morphology. For all experiments, cells were used at 80% of confluence.
After washing twice with PBS, cells were cultured in serum-free DMEM and treated with either 10 or 50 ng/mL of recombinant rat TNF-α (Chemicon) for up to 48 hours. The control cells were not exposed to TNF-α. 100 μM of agmatine was added to the culture medium at the start of injury as indicated.
Apoptotic or necrotic cell death was characterized by double staining cells with Hoechst 33342 and PI. Cells were stained with 10 μg/mL of Hoechst 33342 and 10 μg/mL of PI at 37° C. for 30 minutes. After being washed twice with PBS, cells were imaged with a digital camera attached to a fluorescence microscope.

Molecule	LDH release (RGC-5 [1]; hypoxia 48 hours, 10 ng/mL of BDNF) [%]	LDH release (RGC-5 [1]; hypoxia 48 hours, 50 ng/mL of BDNF) [%]	LDH release (RGC-5 [1]; hypoxia 48 hours, 100 ng/mL of BDNF) [%]	concentration at which cell death was reduced significantly (LDH assay) (RGC-5 [1]; tested 5 ng/mL to 100 ng/mL) [ng/mL]	proportion of apoptotic cells (RGC-5 [2]; hypoxia 12 hours)	proportion of apoptotic cells (RGC-5 [2]; hypoxia 24 hours)	hypoxia-induced expression of phospho-JNKs (JNK)	expression of phospho-ERKs (ERK)	Total MAPKs (JNK, ERK, and p38) and β-actin [3]	suppression of LDH release compared with BDNF (RGC-5 [1]; hypoxia 48 hours, 100 μM of agmatine vs 10 ng/mL BDNF, P<0.001)	LDH release (RGC-5 [1]; hypoxia 48 hours, 100 μM of agmatine) [%]	LDH release (RGC-5 [1]; hypoxia 48 hours, 500 μM of agmatine) [%]	concentration at which cell death was reduced significantly (LDH assay) (RGC-5 [1]; tested 10 μM to 1 mM) [µM]	RGC loss (Hoechst-positive / PI-positive cells) (RGC-5 [4]; 50 ng/mL of TNF-α for 48 hours, 100 μM of agmatine)	effect on culture (Hoechst-positive / PI-labeled cells) (RGC-5 [4]; only 100 μM of agmatine, no TNF-α, 48 hours)
BDNF: recombinant human BDNF (R&D System), well-known protective neurotrophin for RGCs, used as comparator	30.10	33.67	36.06	≥ 10	no significant difference	significant decrease in apoptotic cells	not	completely blocked the expression of phospho-ERKs after exposure to hypoxia for 3 and 6 hours, but had no effect thereafter	no significant changes	–	–	–	–	–	–
N=C(N)NCCCCN [agmatine]	–	–	–	–	no significant difference	significant decrease in apoptotic cells	significantly suppressed	did not significantly affect	no significant changes	more effective in suppressing LDH release than 10 ng/mL BDNF	25.60	27.09	≥ 100	RGC loss was prevented	did not have a significant effect
